Key:
[1] = Partition of model by-product compounds between Carrier liquid 2 (poly-alpha-olefin) and organic solvent; format: physicochemical; conditions: log {[compound]carrier liquid/[compound]organic solvent}, 2 mL solvent + 3 mL carrier liquid solution, shaken 60 min at room temperature
Protocol: (§1) Six compounds were dissolved in two different carrier liquids. The six compounds were exemplary for the by-products that may be obtained when wood is subjected to hydrolysis by the reaction of concentrated hydrochloric acid and that may be obtained when the hydrolyzate thus obtained in treated with the carrier liquid. The compounds were • a) betulin, a triterpene having a pentacyclic structure and two hydroxyl groups, • b) abietic acid, i.e. a diterpene compound derived from four isoprene units and a having one carboxylic acid group, • c) linoleic acid, a fatty aid having 18 carbon atoms and two unsaturated bonds, • d) 1-eicosanol, a linear alkanol having 20 carbon atoms, • e) sitosterol, a phytosterol with a chemical structure similar to cholesterol, and • f) limonene, a cyclic terpene having two unsaturated bonds.
Carrier liquid 2 is a poly-alpha-olefin having a kinematic viscosity of 1240 mm^2/s at 40° C. and a kinematic viscosity of 100 mm^2/s at 100° C. (ASTM D445). It has a flash point of 283° C. (ASTM D92). Carrier liquid 2 is immiscible with water.
(§2) In each experiment, 2 mL of an organic solvent was added to 3 mL of the carrier liquid solutions. The admixture obtained were shaken for 60 min at room temperature. The concentration of each compound in each of the carrier liquids was determined and the partition coefficient was calculated. By partition coefficient P is understood the ratio of concentrations of each of the compounds in an organic solvent and in a carrier liquid. The partition coefficient is expressed as
(§3) log P, being log {[compound]carrier liquid/[compound]organic solvent}.
(§4) The partition coefficients are shown in Table 2 for Carrier liquid 1 and in Table 3 for Carrier liquid 2.

[2] = Partition of model by-product compounds between Carrier liquid 1 (paraffin oil) and organic solvent; format: physicochemical; conditions: log {[compound]carrier liquid/[compound]organic solvent}, 2 mL solvent + 3 mL carrier liquid solution, shaken 60 min at room temperature
Protocol: as §1
Carrier liquid 1 is a paraffin oil with a boiling range of 388 to 709° C. and a kinematic viscosity of 481 mm^2/s at 40° C. and a kinematic viscosity of about 31 at 100° C. (ASTM D445). Carrier liquid 1 is immiscible with water.
as §2, §3, §4

| SMILES | Partition coefficient with Carrier liquid 2, Log P ([1]; Exp. No. 4, solvent methanol) | Partition coefficient with Carrier liquid 2, Log P ([1]; Exp. No. 5, solvent butanol) | Partition coefficient with Carrier liquid 2, Log P ([1]; Exp. No. 6, solvent acetone) | Partition coefficient with Carrier liquid 1, Log P ([2]; Exp. No. 1, solvent methanol) | Partition coefficient with Carrier liquid 1, Log P ([2]; Exp. No. 2, solvent butanol) | Partition coefficient with Carrier liquid 1, Log P ([2]; Exp. No. 3, solvent acetone) |
| --- | --- | --- | --- | --- | --- | --- |
| C=C(C)[C@@H]1CC[C@]2(CO)CC[C@]3(C)[C@H](CC[C@@H]4[C@@]5(C)CC[C@H](O)C(C)(C)[C@@H]5CC[C@]43C)[C@@H]12 [betulin] | −0.36 | −1.09 | −1.03 | – | – | – |
| CC[C@H](CC[C@@H](C)[C@H]1CC[C@H]2[C@@H]3CC=C4C[C@@H](O)CC[C@]4(C)[C@H]3CC[C@]12C)C(C)C [sitosterol] | −0.05 | −0.63 | −0.10 | 0.35 | −0.45 | 0.16 |
